The first test relates to symmetric di-methyl arginine in Z-138 cells. The test can be described thus: Z-138 Methylation Assay (In Cell Western for symmetric di-methyl arginine and DNA content). The class given is cell-based. To be noted: read-out: ICW EC50. The text has this: [formula] Where top and bottom are the normally allowed to float, but may be fixed at 100 or 0 respectively in a 3-parameter fit. The Hill Coefficient normally allowed to float but may also be fixed at 1 in a 3-parameter fit. Y is the % inhibition and X is the compound concentration.
RPMI/Glutamax medium, penicillin-streptomycin, heat inactivated fetal bovine serum, and D-PBS were purchased from Life Technologies, Grand Island, N.Y., USA. Odyssey blocking buffer, 800CW goat anti-rabbit IgG (H+L) antibody, and Licor Odyssey infrared scanner were purchased from Licor Biosciences, Lincoln, Nebr., USA. Symmetric di-methyl arginine antibody was purchased from EMD Millipore, Billerica, Mass., USA. 16% Paraformaldehyde was purchased from Electron Microscopy Sciences, Hatfield, Pa., USA.
Cell Treatment, in Cell Western (ICW) for Detection of Symmetric Di-Methyl Arginine and DNA Content.
Z-138 cells were seeded in assay medium at a concentration of 50,000 cells per mL to a 384-well cell culture plate with 50 μL per well. Compound (100 nL) from 384 well source plates was added directly to 384 well cell plate. Plates were incubated at 37° C., 5% CO2 for 96 hours. […] Plates were incubated at room temperature for 30 minutes then incubated at 37° C., 5% CO2 for 5 hours. After the incubation, 40 μL per well of 8% paraformaldehyde in PBS (16% paraformaldahyde was diluted to 8% in PBS) was added to each plate and incubated for 30 minutes. […] Next 30 μL per well of Odyssey blocking buffer were added to each plate and incubated 1 hour at room temperature. […]
First, the ratio for each well was determined by:
Each plate included fourteen control wells of DMSO only treatment (minimum inhibition) as well as fourteen control wells for maximum inhibition treated with 3 μM of a reference compound (Background wells). The average of the ratio values for each control type was calculated and used to determine the percent inhibition for each test well in the plate. […] Percent inhibition was determined and IC50 curves were generated using triplicate wells per concentration of compound.
Consider `CN1CCC(Oc2cccc(C(=O)NCC(O)CN3CCc4ccccc4C3)c2)C1` (centres unmarked) [Compound 134], for which the EC50 – broadly, the concentration that produces a half-maximal response – was in the range of 101 to 1000 nM.

In the next test the target is PRMT5/MEP50 (Homo sapiens (Human), UniProt O14744). The test can be described thus: PRMT5 Biochemical Assay (PRMT5/MEP50 enzyme assay on peptide substrate, 3H-SAM Flashplate).
Sequence of PRMT5/MEP50 (O14744 other isoform, or with tags, fused parts or gaps): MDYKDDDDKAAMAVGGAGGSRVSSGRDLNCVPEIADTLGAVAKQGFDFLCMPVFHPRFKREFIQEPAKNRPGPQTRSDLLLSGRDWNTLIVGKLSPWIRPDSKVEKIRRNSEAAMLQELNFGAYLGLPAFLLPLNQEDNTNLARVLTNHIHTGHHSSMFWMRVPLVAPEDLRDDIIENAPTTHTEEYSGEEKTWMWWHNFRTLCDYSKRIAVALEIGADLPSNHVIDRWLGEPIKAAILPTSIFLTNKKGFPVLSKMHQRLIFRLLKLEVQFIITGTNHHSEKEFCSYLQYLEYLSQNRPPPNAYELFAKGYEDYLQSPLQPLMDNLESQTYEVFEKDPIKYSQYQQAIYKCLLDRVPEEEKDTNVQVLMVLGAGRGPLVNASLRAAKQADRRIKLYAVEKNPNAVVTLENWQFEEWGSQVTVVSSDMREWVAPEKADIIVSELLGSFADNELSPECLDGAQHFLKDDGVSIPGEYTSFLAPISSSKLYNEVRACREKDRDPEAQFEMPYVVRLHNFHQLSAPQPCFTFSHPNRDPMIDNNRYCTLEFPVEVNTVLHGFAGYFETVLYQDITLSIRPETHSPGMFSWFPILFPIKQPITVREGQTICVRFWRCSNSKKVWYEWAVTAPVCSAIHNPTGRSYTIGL
Sequence of PRMT5/MEP50 (Q9BQA1 other isoform, or with tags, fused parts or gaps partner): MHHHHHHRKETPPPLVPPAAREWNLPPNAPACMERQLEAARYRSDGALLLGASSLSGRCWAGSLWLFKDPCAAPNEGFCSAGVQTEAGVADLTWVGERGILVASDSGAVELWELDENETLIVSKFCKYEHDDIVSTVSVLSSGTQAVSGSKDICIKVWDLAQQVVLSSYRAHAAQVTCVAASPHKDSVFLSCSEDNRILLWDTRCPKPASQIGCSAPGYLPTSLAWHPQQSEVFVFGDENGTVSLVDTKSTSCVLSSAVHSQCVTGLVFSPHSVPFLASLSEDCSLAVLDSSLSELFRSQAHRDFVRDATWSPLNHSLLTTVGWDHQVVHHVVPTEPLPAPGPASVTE
Settings: not given
Regarding `O=C(NC[C@H](O)CN1CCc2ccccc2C1)Oc1ccccc1` [Compound 7], the half-maximal inhibitory concentration (IC50) (usually the concentration that gives 50% inhibition) was in the range of 1000 to 10000 nM.

The test is the same for the next values; noted with them: PRMT5/MEP50 biochemical assay; read-out: Biochemical IC50.
Take `CN1CCC(Oc2cccc(C(=O)NCC(O)CN3CCc4ccccc4C3)c2)C1` (centres unmarked) [Compound 134]: the 50% inhibitory concentration (IC50) was under 100 nM.
The same measure, in the same setting: the figure for `CN1CCN(Cc2ccc(C(=O)NCC(O)CN3CCc4ccccc4C3)cc2)CC1` (centres unmarked) [Compound 163] is under 100 nM; for `O=C(NC[C@H](O)CN1CCc2ccccc2C1)c1cc(NC2CNC2)ncn1` [Compound 280] it is under 100 nM.
Same read-out and setting: the value for `O=C(NCC(O)CN1CCc2ccccc2C1)c1ccnc(NC2CCOCC2)n1` (centres unmarked) [Compound 62] was under 100 nM; that for `O=C(NCC(O)CN1CCc2ccccc2C1)c1cccc(C2CCOC2)c1` (centres unmarked) [Compound 154] was under 100 nM.
`COCCCNc1cccc(C(=O)NCC(O)CN2CCc3ccccc3C2)c1` (centres unmarked) [Compound 70]: the half-maximal inhibitory concentration (IC50) lay within 101 to 1000 nM.
With `O=C(NCC(O)CN1CCc2ccccc2C1)c1ncc[nH]1` (centres unmarked) [Compound 170], the IC50 fell in the range of 101 to 1000 nM.
On the same count and under the same terms, the value for `CC(=O)N1CCC(Nc2cccc(C(=O)NC[C@H](O)CN3CCc4ccccc4C3)c2)CC1` [Compound 215] was under 100 nM; that for `O=C(NCC(O)CN1CCc2ccccc2C1)c1cc(Cl)cc(NC2CCOCC2)c1` (centres unmarked) [Compound 64] was under 100 nM.
Same read-out and setting: the value for `Cc1cnc(NC2CCOC2)cc1C(=O)NC[C@H](O)CN1CCc2ccccc2C1` (some centres unmarked) [Compound 308] was under 100 nM; that for `CN1CCN(c2cccc(C(=O)NCC(O)CN3CCc4ccccc4C3)c2)CC1` (centres unmarked) [Compound 36] was under 100 nM; that for `O=C(NC[C@H](O)CN1CCc2ccccc2C1)c1ccc2c(c1)CCCC2` [Compound 247] was under 100 nM.
The same measure, in the same setting: the value for `O=C(NC[C@H](O)CN1CCc2ccccc2C1)c1ccnc(NC2CCN(CC(F)(F)F)CC2)c1` [Compound 224] was under 100 nM; that for `Cn1ccc(C(=O)NCC(O)CN2CCc3ccccc3C2)n1` (centres unmarked) [Compound 149] was 101 to 1000 nM; that for `CCN(c1cccc(C(=O)NCC(O)CN2CCc3ccccc3C2)c1C)C1CCOCC1` (centres unmarked) [Compound 41] was under 100 nM.
`CN(C)CCNc1cc(C(=O)NC[C@H](O)CN2CCc3ccccc3C2)ccn1` [Compound 214]: the half-maximal inhibitory concentration (IC50) is under 100 nM.
On the same count and under the same terms, the value for `CC(=O)N1CCN(Cc2cccc(C(=O)NCC(O)CN3CCc4ccccc4C3)c2)CC1` (centres unmarked) [Compound 100] was under 100 nM.
`CN1CCC(N(C)c2cccc(C(=O)NCC(O)CN3CCc4ccccc4C3)c2)CC1` (centres unmarked) [Compound 131]: the concentration for half-maximal inhibition (IC50) is under 100 nM.
Same read-out and setting: the figure for `CC(=O)N(C)CCN(C)c1cc(C(=O)NC[C@H](O)CN2CCc3ccccc3C2)ccn1` [Compound 291] is under 100 nM; for `CC(=O)N1CCC(Nc2cncc(C(=O)NC[C@H](O)CN3CCc4ccccc4C3)c2)CC1` [Compound 302] it is under 100 nM; for `COCCCNc1cccc(C(=O)NCC(O)CN2CCc3ccccc3C2)c1` (centres unmarked) [Compound 69] it is 101 to 1000 nM.
The same measure, in the same setting: the value for `O=C(NC[C@H](O)CN1CCc2ccccc2C1)c1ccnc(NC2CCNC2)c1` (some centres unmarked) [Compound 201] was under 100 nM.
Still for that read-out and setting: the value for `Cc1ccc(NC2CCOCC2)cc1C(=O)NCC(O)CN1CCc2ccccc2C1` (centres unmarked) [Compound 95] was 101 to 1000 nM; that for `CC(C)N1CCC(Nc2cccc(C(=O)NCC(O)CN3CCc4ccccc4C3)c2)C1` (centres unmarked) [Compound 101] was under 100 nM.
Take `O=C(NC[C@H](O)CN1CCc2ccccc2C1)c1ccc2[nH]nnc2c1` [Compound 305]: the IC50 lay within 101 to 1000 nM.
Consider `O=C(NC[C@H](O)CN1CCc2ccccc2C1)c1ccc(OC2CCN(CCO)CC2)cc1` [Compound 321], for which the IC50 was under 100 nM.
The same measure, in the same setting: the figure for `CN1CCC(Nc2cccc(C(=O)NC[C@H](O)CN3CCc4ccccc4C3)c2)CC1` [Compound 239] is under 100 nM; for `O=C(NCC(O)CN1CCc2ccccc2C1)c1cn[nH]c1-c1ccccc1` (centres unmarked) [Compound 112] it is 101 to 1000 nM.
Still for that read-out and setting: the figure for `CC(c1cccc(C(=O)NCC(O)CN2CCc3ccccc3C2)c1)N1CCN(C)CC1` (centres unmarked) [Compound 161] is under 100 nM.
In the case of `CS(=O)(=O)N1CC(Nc2cc(C(=O)NC[C@H](O)CN3CCc4ccccc4C3)ccn2)C1` [Compound 278], the IC50 is under 100 nM.
In the case of `O=C(NCC(O)CN1CCc2ccccc2C1)c1cccc(NC2CCNC2)c1` (centres unmarked) [Compound 93], the concentration for half-maximal inhibition (IC50) was in the range of 101 to 1000 nM.
For the compound `CN1CCCC(CNc2cc(C(=O)NC[C@H](O)CN3CCc4ccccc4C3)ccn2)C1` (some centres unmarked) [Compound 264], the 50% inhibitory concentration (IC50) was under 100 nM.
On the same count and under the same terms, the figure for `Cc1ccc2cc(C(=O)NCC(O)CN3CCc4ccccc4C3)ccc2n1` (centres unmarked) [Compound 84, N-(3-(3,4-dihydroisoquinolin-2(1H)-yl)-2-hydroxypropyl)-2-methylquinoline-6-carboxamide] is under 100 nM; for `COc1ccc2cc(C(=O)NC[C@H](O)CN3CCc4ccccc4C3)ccc2c1` [Compound 251] it is under 100 nM; for `CN1CCC(Nc2cc(C(=O)NC[C@H](O)CN3CCc4ccccc4C3)ncn2)C1` (some centres unmarked) [Compound 181] it is under 100 nM.
Same read-out and setting: the figure for `CC(C)N1CCC(Oc2ccc(C(=O)NCC(O)CN3CCc4ccccc4C3)cc2)CC1` (centres unmarked) [Compound 106] is under 100 nM.
Regarding `O=C(NC[C@H](O)CN1CCc2ccccc2C1)c1nccc2ccccc12` [Compound 272], the concentration for half-maximal inhibition (IC50) was under 100 nM.
Consider `O=C(NC[C@H](O)CN1CCc2ccccc2C1)c1c[nH]c2ccccc12` [Compound 240], for which the IC50 lay within 101 to 1000 nM.
Take `O=C(NCC(O)CN1CCc2ccccc2C1)c1cccc(C2CCOCC2)c1` (centres unmarked) [Compound 99]: the IC50 is under 100 nM.
Still for that read-out and setting: the value for `CS(=O)(=O)N1CCC(Nc2cccc(C(=O)NCC(O)CN3CCc4ccccc4C3)c2)CC1` (centres unmarked) [Compound 125] was under 100 nM; that for `O=C(NCC(O)CN1CCc2ccccc2C1)c1cc(NC2CCOCC2)ccn1` (centres unmarked) [Compound 55, N-(3-(3,4-dihydroisoquinolin-2(1H)-yl)-2-hydroxypropyl)-4-((tetrahydro-2H-pyran-4-yl)amino)picolinamide] was under 100 nM.
Same read-out and setting: the value for `CS(=O)(=O)N1CCC(Oc2cccc(C(=O)NCC(O)CN3CCc4ccccc4C3)c2)C1` (centres unmarked) [Compound 162] was under 100 nM.
Turning to `O=C(NC[C@H](O)CN1CCc2ccccc2C1)c1cncc(NC2CCNC2)c1` (some centres unmarked) [Compound 259], the concentration for half-maximal inhibition (IC50) is under 100 nM.
With `CN(C)CCCOc1ccc(C(=O)NCC(O)CN2CCc3ccccc3C2)cc1` (centres unmarked) [Compound 178], the IC50 is under 100 nM.
Turning to `O=C(NCC(O)CN1CCc2ccccc2C1)c1ccc(N2CCS(=O)(=O)CC2)cc1` (centres unmarked) [Compound 179], the IC50 was under 100 nM.
The same measure, in the same setting: the value for `CN(C)CCN(C)c1cc(C(=O)NC[C@H](O)CN2CCc3ccccc3C2)ccn1` [Compound 186] was under 100 nM; that for `C[C@@H]1CC(Nc2cccc(C(=O)NC[C@H](O)CN3CCc4ccccc4C3)c2)CCO1` (some centres unmarked) [Compound 168] was under 100 nM.
The same measure, in the same setting: the figure for `O=C(NCC(O)CN1CCc2ccccc2C1)c1cccc(CN2CCNCC2)c1` (centres unmarked) [Compound 29] is under 100 nM.
On the same count and under the same terms, the figure for `O=C(NC[C@H](O)CN1CCc2ccccc2C1)c1cncc(OC2CCNCC2)c1` [Compound 260] is under 100 nM; for `Cc1cnc(OC2CCOCC2)cc1C(=O)NC[C@H](O)CN1CCc2ccccc2C1` [Compound 309] it is 101 to 1000 nM; for `CC(C)N1CCC(Oc2ccc(C(=O)NCC(O)CN3CCc4ccccc4C3)cc2)C1` (centres unmarked) [Compound 196] it is under 100 nM.
For the compound `CS(=O)(=O)N1CCC(Nc2cccc(C(=O)NC[C@H](O)CN3CCc4ccccc4C3)c2)CC1` [Compound 216], the concentration for half-maximal inhibition (IC50) is under 100 nM.
Still for that read-out and setting: the value for `O=C(NC[C@H](O)CN1CCc2ccccc2C1)c1cncc(NC2CCOC2)c1` (some centres unmarked) [Compound 211] was under 100 nM; that for `O=C(NC[C@H](O)CN1CCc2ccccc2C1)c1cc2ccccc2[nH]1` [Compound 269] was under 100 nM.

For the origin of these results see patent publication US9675614B2, “PRMT5 inhibitors and uses thereof” (Epizyme, Inc., priority 2012, dated 2017).
